Data from BigSolDB 2.1.

O=C(O)COc1ccc(Cl)cc1Cl
solubility (mole fraction)
Conditions | 278.15 K | 283.15 K | 288.15 K | 293.15 K | 298.15 K | 303.15 K | 308.15 K | 313.15 K | 318.15 K | 323.15 K
in 2-butanone | 0.0937 | 0.103 | 0.112 | 0.123 | 0.134 | 0.144 | 0.156 | 0.169 | 0.184 | 0.201
in MTBE | 0.087 | 0.0961 | 0.106 | 0.116 | 0.126 | 0.137 | 0.148 | 0.161 | 0.175 | 0.19
in acetone | 0.107 | 0.116 | 0.127 | 0.137 | 0.15 | 0.163 | 0.176 | 0.191 | 0.205 | 0.222
in acetonitrile | 0.0178 | 0.0246 | 0.0306 | 0.0401 | 0.0499 | 0.0572 | 0.0672 | 0.078 | 0.0888 | 0.103
in ethanol | 0.0654 | 0.0797 | 0.0975 | 0.117 | 0.141 | 0.167 | 0.192 | 0.223 | 0.255 | 0.292
in ethyl acetate | 0.0548 | 0.0622 | 0.0703 | 0.0798 | 0.0894 | 0.101 | 0.113 | 0.126 | 0.14 | 0.155
in isobutanol | 0.0317 | 0.0402 | 0.0508 | 0.0627 | 0.0778 | 0.0933 | 0.112 | 0.135 | 0.161 | 0.19
in isobutyl acetate | 0.0365 | 0.0427 | 0.0494 | 0.0574 | 0.0657 | 0.0747 | 0.0846 | 0.0958 | 0.11 | 0.128
in isopropanol | 0.0424 | 0.0525 | 0.0646 | 0.0783 | 0.0942 | 0.113 | 0.132 | 0.153 | 0.176 | 0.201
in methyl acetate | 0.0602 | 0.0685 | 0.0761 | 0.0846 | 0.0976 | 0.106 | 0.119 | 0.131 | 0.144 | 0.16
in n-butanol | 0.0521 | 0.0644 | 0.079 | 0.0986 | 0.127 | 0.146 | 0.17 | 0.198 | 0.231 | 0.27
in n-butyl acetate | 0.0486 | 0.0535 | 0.0604 | 0.0678 | 0.0749 | 0.0832 | 0.0931 | 0.106 | 0.12 | 0.136
in n-pentanol | 0.0537 | 0.0701 | 0.0866 | 0.107 | 0.131 | 0.155 | 0.182 | 0.211 | 0.243 | 0.281
in n-propanol | 0.0486 | 0.0602 | 0.0731 | 0.0911 | 0.11 | 0.131 | 0.152 | 0.179 | 0.207 | 0.236
in sec-butanol | 0.043 | 0.0535 | 0.0665 | 0.0809 | 0.098 | 0.117 | 0.139 | 0.162 | 0.186 | 0.213
